From paper PMC12081029, “Structural, Spectroscopic, and Docking Analysis of N,O‐Donor Ligand Metal Complex Nanoparticles With Hypolipidemic Effects via Lipoprotein Lipase Activation in High‐Fat Diet Mice” (Chemistry & Biodiversity, 2024)
Where “and” joins values, the source holds several entries; their conditions need not be identical. Identical values can stand only once. Like-named read-outs stand apart in the source and are kept apart here.

Key:
Staphylococcus aureus [1] = details: cited from earlier work
Bacillus subtilis [2] = details: cited from earlier work
Escherichia coli [3] = details: cited from earlier work
Salmonella typhi [4] = system: Salmonella typhi; design: method as in PMID 16740311; details: cited from earlier work
Aspergillus niger [5] = system: Aspergillus niger; design: method as in PMID 16740311; details: cited from earlier work
Salmonella typhi [6] = test: Agar diffusion, inhibition zone (ZOI) and activity index; format: cell-based; details: Salmonella typhi
Salmonella typhi [7] = test: MIC / MBC determination; format: cell-based; details: Salmonella typhi
[8] = system: lipoprotein lipase (L. lipase); test: Serum L. lipase activity in high-fat diet mice (fluorometric kit); format: in vivo; details: HFD C57BL/6 mice; for L. lipase (serum enzyme activity): 4 mg kg^−1 body weight in DMF, 3 months, mean ± SD
Experimental: (§1) This study employed 8‐week‐old male C57BL/6 mice of matched weight (around 20–25 g) from an inbred “genetically identical” strain. The mice were purchased from the National Research Center's Animal House. Then, they were subdivided into five groups, each group containing eight mice; four groups were treated with CETZ.2HCl (antihistamine drug) and its metal complexes, whereas one group was left untreated and classified as a control group. Animals were housed in modular plastic veterinary cages at air‐conditioned room, under pathogen‐free conditions. Mice were fed HFD, which consisted of carbs 42.0%, fat 23.0%, protein 17.0%, fiber 3.0%, minerals 5.0%, and moisture 10.0% for 3 months, together with administration of either CETZ.2HCl or its metal complexes (4 mg kg ^−1 body weight) in DMF [37]. Experiments were performed in accordance with the regulations of the Animal Care and Use Committee of the College of Veterinary Medicine, Mansoura University (MU‐ACUC), Egypt; MU‐ACUC (PHARM.R.24.02.30), complied with “Guide for the Care and Use of Laboratory Animals” (National Research Council publication 8th ed., USA, 2011).
(§2) Specimens of blood were gathered from the retro‐orbital sinus, under halothane (1.5 percent v/v halothane in oxygen) anesthesia via inhalation. The collected blood was allowed to clot, by centrifugation at 1600 rpm for 20 min, to obtain serum. Isolated sera were maintained at −80°C until tests of liver function in addition to lipid profiles were performed. For estimation of L. lipase activity, fluorometric L. lipase activity assay kit was utilized following the manufacturer's protocol (Cat. No. STA‐610, Cell BIOLABS INC., San Diego, USA). Serum T. chol. LDL, HDL, TG, ALT (alanine aminotransferase), AST (aspartate aminotransferase), and ALP (alkaline phosphatase) were examined with Roche kits using COBAS Integra 400 and COBAS Integra‐400 plus (Roche Diagnostics Limited, Switzerland).

[9] = Serum lipid profile in high-fat diet mice; format: in vivo; details: HFD C57BL/6 mice, 4 mg kg^−1 body weight, 3 months, mean ± SD
Experimental: as §1, §2

[10] = Serum liver function enzymes in high-fat diet mice; format: in vivo; details: HFD C57BL/6 mice, 4 mg kg^−1 body weight, 3 months, mean ± SD
Experimental: as §1, §2

Aspergillus niger [11] = test: MIC determination
Aspergillus terreus [12] = test: MIC determination
Staphylococcus aureus [13] = test: MIC / MBC determination
Bacillus subtilis [14] = test: MIC / MBC determination
Escherichia coli [15] = test: MIC / MBC determination
Staphylococcus aureus [16] = test: Agar diffusion, inhibition zone (ZOI) and activity index; details: Staphylococcus aureus
Bacillus subtilis [17] = test: as above; details: Bacillus subtilis
Escherichia coli [18] = test: as above; details: Escherichia coli
Aspergillus niger [19] = test: as above; details: Aspergillus niger
Aspergillus terreus [20] = test: as above
[21] = Table 9, preceding research ref [68]
[22] = 10^−3 M in DMF, 5 mm holes, 20 h at 37°C
[23] = ZOI of compound / ZOI of standard (gentamicin) × 100
[24] = ZOI of compound / ZOI of standard (ampicillin) × 100
[25] = 10^−3 M in DMF, 5 mm holes, 7 days at 30°C
[26] = ZOI of compound / ZOI of standard (colitrimazole) × 100

O.O.O=C([O-])COCCN1CCN(C(c2ccccc2)c2ccc(Cl)cc2)CC1.O=[N+]([O-])[O-].[Cu+2].c1ccc(-c2ccccn2)nc1 (centres unmarked) [[(Cu(CETZ)(Bipy)(H2O)2(NO3)]]
AI (Staphylococcus aureus [1]; Table 9, Staphylococcus aureus ref [68]): 105.7 | Staphylococcus aureus (inhibition zone) (Staphylococcus aureus [1]; [21]): 24 ^+ ^3 ± 0.13 | AI (Bacillus subtilis [2]; Table 9, Bacillus subtillis ref [68]): 55.3 | Bacillus subtillis (inhibition zone) (Bacillus subtilis [2]; [21]): 15.7 ^+ ^1 ± 0.001 | AI (Escherichia coli [3]; Table 9, Escherichia coli ref [68]): 113.3 | Escherichia coli (inhibition zone) (Escherichia coli [3]; [21]): 22.1 ^+ ^2 ± 0.005 | AI (Salmonella typhi [4]; Table 9, Salmonella typhi ref [68]): 59.9 | Salmonella typhi (inhibition zone) (Salmonella typhi [4]; [21]): 12.4 ^+ ^1 ± 0.22 | AI (Aspergillus niger [5]; Table 9, Aspergillus niger ref [68]): 88.89 | Aspergillus niger (inhibition zone) (Aspergillus niger [5]; [21]): 17.6 ^+ ^1 ± 0.11

[Zn(CETZ)(Phen)(H2O)2Cl] [complex (2)]
ZOI (Salmonella typhi [6]; [22]): 18.0 ^+ ^2 ±0.17 mm | AI (Salmonella typhi [6]; [23]): 86.9% | MBC (Salmonella typhi [7]): 0.065 ± 0.014 µg/mL | MIC (Salmonella typhi [7]): 0.050 µg/mL and 0.050 ± 0.007 µg/mL | L. lipase (serum enzyme activity) [8]: 108.88 U/L | L. lipase (serum enzyme activity) ([8]; listed as Zn-CETZ Complex): 108.88±20.0 U/L | mean L. lipase activity ([8]; rounded, 4 mg kg^−1 body weight): 108.9 U L^−1 | HDL [9]: 115.75 ± 13.32 mg/dL | LDL [9]: 71.63 ± 6.5 mg/dL | Total Chol. [9]: 155.5 ± 16.01 mg/dL | Trig [9]: 70.63 ± 6.05 mg/dL | ALP [10]: 49.63 ± 6.16 U L^−1 | ALT [10]: 164.87 ± 35.27 U L^−1 | AST [10]: 156.5 ± 16.12 U L^−1 | MIC (Aspergillus niger [11]): 0.025 µg/mL and 0.025 ± 0.01 µg/mL | MIC (Aspergillus terreus [12]): 0.050 µg/mL and 0.050 ± 0.02 µg/mL | MBC (Staphylococcus aureus [13]): 0.057 µg/mL and 0.057 ± 0.002 µg/mL | MIC (Staphylococcus aureus [13]): 0.050 µg/mL and 0.050 ± 0.007 µg/mL | MIC (Bacillus subtilis [14]): 0.050 ± 0.01 µg/mL | MBC (Escherichia coli [15]): 0.063 ± 0.015 µg/mL | MIC (Escherichia coli [15]): 0.050 µg/mL and 0.050 ± 0.02 µg/mL | ZOI (Staphylococcus aureus [16]; [22]): 15.2 ^+ ^1 ±0.74 mm | AI (Staphylococcus aureus [16]; [24]): 66.9% | ZOI (Bacillus subtilis [17]; [22]): 21.2 ^+ ^2 ±1.04 mm | AI (Bacillus subtilis [17]; [24]): 74.65% | ZOI (Escherichia coli [18]; [22]): 7.9^NS ±0.34 mm | AI (Escherichia coli [18]; [23]): 40.5% | ZOI (Aspergillus niger [19]; [25]): 17.6 ^+ ^1 ±0.43 mm | AI (Aspergillus niger [19]; [26]): 88.88% | ZOI (Aspergillus terreus [20]; [25]): 12.0^NS ±1.71 mm | AI (Aspergillus terreus [20]; [26]): 68.57%
